From article PMC8305768, “Design, Synthesis and Antiparasitic Evaluation of Click Phospholipids” (Molecules, 2021)
Counter-ions that a name gives are not always drawn.

Assays:
CYP3A4 = biological target: T1, CYP3A4 (Homo sapiens, UniProt P08684); test: Cytochrome P450 inhibition assay (P450-Glo) CYP3A4; type: in vitro ADME; settings: compounds 10 μM; miltefosine 10 μM or 1 μM
T1 construct: purchased Corning Inc; host or cells: baculovirus-infected insect cells
Description: (§1) Cytochrome (CYP) P450 inhibition assay: These assays made use of microsomal preparations of CYP450 (1A2, 2C9, 2C19, 2D6 and 3A4) from baculovirus-infected insect cells (Corning Inc., Corning, NY, USA) and cytochrome c reductase (and cytochrome b5 for CYP450 3A4). For detection of CYP450 activity, the luminescence-based P450-Glo (Promega Corp., Madison, WI, USA) assay system was used that contained a luminogenic CYP450 substrate, lyophilized luciferin detection reagent and reconstitution buffer. The substrates were luciferin derivatives of CYP450-specific substrates that produce (4S)-4,5-dihydro-2-(6-hydroxybenzothiazolyl)-4-thiazolecarboxylic acid (D-luciferin) after cleavage by CYP450 (CYP450 3A4, luciferin-IPA; CYP450 2C19, luciferin-H EGE; CYP450 2C9, luciferin-H; CYP450 2D6, luciferin-ME EGE; CYP450 1A2, luciferin-1A2). CYP450 reactions were initiated by addition of the NADPH regeneration system to the enzyme–substrate mixture with the luciferin detection reagent stopping the reaction and the D-luciferin being converted to oxyluciferin under the production of light being proportional to the CYP450 activity. The CYP450 assays were performed using the Tecan Fluent liquid-handling automation platform (Tecan Group Ltd., Mannedorf, Switzerland) in the 384-well assay format. Compounds were added into an empty 384-well plate (100 nL/well in 1% v/v DMSO) using the Echo 550 Liquid Handler followed by the addition of 5 μL/well of the CYP450/substrate mixture and incubation for 30 min at 37 °C, after which the reaction was initiated by the addition of the 5 μL/well NADPH regeneration system. After a further 30-min incubation at 37 °C, the CYP450 reaction was stopped and the luciferase reaction was simultaneously initiated by addition of 10 μL/well of luciferin detection reagent, followed by an additional 30-min incubation at 37 °C. The luminescence signal was detected using an Infinite M1000 PRO plate reader (Tecan Group Ltd., Mannedorf, Switzerland). The NCs yielded 0% inhibition (1% v/v DMSO) and standard CYP450 specific inhibitors were used as positive controls, yielding 100% inhibition (CYP450 1A2, alpha-naphthoflavone; CYP450 2C9, sulfaphenazole; CYP450 2C19, troglitazone; CYP450 2D6, quinidine; CYP450 3A4, ketoconazole).
Data analysis: The screening data were obtained in triplicate and analysed using ActivityBase (IDBS, Guildford, UK), and outlier elimination in the control wells was performed using the 3-sigma method. Unless stated, dose–response experiments were performed in the 11-point format with the IC50 value, Hill slope, minimum signal and maximum signal for each dose–response curve obtained using a four-parameter logistic fit in the XE module of ActivityBase (IDBS).

[1] = Early ADMET profiling panel, overall; settings: 10 μM; except for toxicity against THP1 macrophages
Description: Early ADMET profiling: The early ADMET profiling of the new derivatives involved a group of assays widely used in drug development as part of the preclinical in vitro toxicity studies. In particular our panel included hERG inhibition, five cytochromes P450 (CYP1A2, CYP2C9, CYP2C19, CYP2D6 and CYP3A4), two cell-lines (A549, epithelial human lung adenocarcinoma, WI38 and foetal lung fibroblasts), Aurora B kinase and mitochondrial toxicity, in addition to the parasite relevant toxicity against THP1 macrophages. The compounds were tested at 10 μΜ, whilst the miltefosine control was tested at 10 μΜ or 1 μM. The toxicity of the new click phospholipids is depicted in Figure 3 in a traffic light format (from red through yellow to green for decreasing ADMET liabilities).
Cytotoxicity assay: A549 cells and WI-38 cells were grown on surface-modified T175 cell culture flasks in Dulbecco’s modified Eagle medium with 10% foetal calf serum (FCS), streptomycin (100 μg/mL) and 100 U/mL penicillin G. At about 80% confluency, cells were washed, trypsinized, resuspended and counted in RPMI-1640 medium before seeding (in triplicate) into white 384-well microtiter plates (20 μL) at 500 cells/well and incubated at 37 °C in the presence of 5% CO2 for 24 h. A total of 20 μL/well of CellTiter-Glo (CTG) reagent (Promega Corp., Madison, WI, USA) was added to each well, and plates were read using an EnVision Multilabel 2103 Reader after a 10-min incubation in the dark. Dose–response assays for compounds made use of 11-point curves. Each test compound (200 nL of 10 mM top concentration in 100% v/v DMSO) was added to cells seeded in polystyrene 384-well cell culture microtiter plates using the Echo 550 Liquid Handler and read after 24 h of incubation at 37 °C in the presence of 5% CO2 using CTG as described above. The compounds/positive control (paclitaxel with final concentration of 10 μM and 1% v/v DMSO) and no compound (final 1% v/v DMSO) were added into the 384-well plates (200 nL/well; 1% v/v DMSO) using the Echo 550 Liquid Handler. The raw luminescence signal of each sample was converted into the percentage of cell growth.
as §1, with “After a further 30-min incubation at 37 °C, the CYP450 reaction was stopped and the luciferase reaction was simultaneously initiated by addition of 10 μL/well of luciferin detection reagent, followed by an additional 30-min incubation at 37 °C. The luminescence signal was detected using an Infinite M1000 PRO plate reader (Tecan Group Ltd., Mannedorf, Switzerland). The NCs yielded 0% inhibition (1% v/v DMSO) and standard CYP450 specific inhibitors were used as positive controls, yielding 100% inhibition (CYP450 1A2, alpha-naphthoflavone; CYP450 2C9, sulfaphenazole; CYP450 2C19, troglitazone; CYP450 2D6, quinidine; CYP450 3A4, ketoconazole).” left out

T1 sequence (P08684 2-503 limits assumed): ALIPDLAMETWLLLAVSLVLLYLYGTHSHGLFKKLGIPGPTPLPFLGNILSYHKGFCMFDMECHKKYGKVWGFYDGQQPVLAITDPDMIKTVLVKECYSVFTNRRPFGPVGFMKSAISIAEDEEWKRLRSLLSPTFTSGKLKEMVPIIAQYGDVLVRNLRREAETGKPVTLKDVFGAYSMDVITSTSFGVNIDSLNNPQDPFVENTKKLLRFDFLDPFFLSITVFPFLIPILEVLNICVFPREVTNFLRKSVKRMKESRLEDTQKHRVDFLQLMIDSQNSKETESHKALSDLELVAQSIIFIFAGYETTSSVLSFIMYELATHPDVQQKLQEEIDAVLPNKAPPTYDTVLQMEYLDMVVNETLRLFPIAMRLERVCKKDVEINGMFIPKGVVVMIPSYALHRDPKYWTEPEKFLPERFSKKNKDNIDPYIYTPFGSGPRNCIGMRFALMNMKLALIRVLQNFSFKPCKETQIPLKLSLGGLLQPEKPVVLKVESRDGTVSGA

Row | Structure (SMILES) | % inhibition ± SD at 10 μΜ CYP3A4 (CYP3A4) | ADMET liabilities (overall panel) [1]
1 | CCCCCCCCc1noc(CCCCCCCCCCOP(=O)([O-])OCC[N+](C)(C)C)n1 [Compound 54, 10-(3-octyl-1,2,4-oxadiazol-5-yl)decyl (2-(trimethylammonio)ethyl) phosphate inner salt] | 13.88% | 
2 | C[N+](C)(C)CCOP(=O)([O-])OCCCCCCCCCCCn1cc(CC2CCCC2)nn1 [Compound 28, 11-(4-(cyclopentylmethyl)-1H-1,2,3-triazol-1-yl)undecyl (2-(trimethylammo nio)ethyl) phosphate inner salt] | –33.70% | no liabilities
3 | C[N+](C)(C)CCOP(=O)([O-])OCCCCCCCCCCCn1cc(CCCCCCCCC(=O)O)nn1 [Compound 34, 11-(4-(8-carboxyoctyl)-1H-1,2,3-triazol-1-yl)undecyl (2-(trimethylammonio)ethyl) phosphate inner salt] | 19.27% | no liabilities
4 | C[N+](C)(C)CCOP(=O)([O-])OCCCCCn1cc(CCCCCCCCNC(=O)OCc2ccccc2)nn1 [Compound 31, 5-(4-(8-(((benzyloxy)carbonyl)amino)octyl)-1H-1,2,3-triazol-1-yl)pentyl (2-(trimethylammonio)ethyl) phosphate inner salt] | –7.33% | no liabilities
5 | CCCCCCCCc1noc(CCCCCOP(=O)([O-])OCC[N+](C)(C)C)n1 [Compound 53, 5-(3-octyl-1,2,4-oxadiazol-5-yl)pentyl (2-(trimethylammonio)ethyl) phosphate inner salt] | –12.40% | no liabilities
6 | C[N+](C)(C)CCOP(=O)([O-])OCCCCCn1cc(CCCCCCCCN)nn1 [Compound 35, 5-(4-(8-aminooctyl)-1H-1,2,3-triazol-1-yl)pentyl (2-(trimethylammonio)ethyl) phosphate inner salt] | –8.64% | no liabilities
7 | C[N+](C)(C)CCCOP(=O)([O-])OCCCCCCCCCCCn1cc(CC2CCCCC2)nn1 [Compound 33, 11-(4-(cyclohexylmethyl)-1H-1,2,3-triazol-1-yl)undecyl (3-(trimethylammonio)propyl) phosphate inner salt] | 7.61 ± 9.09% | no liabilities
8 | CCCCCc1cn(CCCCCCCCCCCOP(=O)([O-])OCC[N+](C)(C)C)nn1 [Compound 25, 11-(4-pentyl-1H-1,2,3-triazol-1-yl)undecyl (2-(trimethylammonio)ethyl) phosphate inner salt] | –20.13% | no liabilities
9 | C[N+](C)(C)CCOP(=O)([O-])OCCCCCCCCCCCn1cc(CC2CCCCC2)nn1 [Compound 29, 11-(4-(cyclohexylmethyl)-1H-1,2,3-triazol-1-yl)undecyl (2-(trimethylammonio)ethyl) phosphate inner salt] | –33.59% | no liabilities
10 | CCCCCCCc1nnc(CCCCCCCCCCOP(=O)([O-])OCC[N+](C)(C)C)o1 [Compound 65, 10-(5-heptyl-1,3,4-oxadiazol-2-yl)decyl (2-(trimethylammonio)ethyl) phosphate inner salt] | –2.44% | no liabilities
11 | CCCCCCCCCCCCCCCCOP(=O)([O-])OCC[N+](C)(C)C [Miltefosine, hexadecylphosphocholine, reference compound] | 8.39% | 
